Results taken from patent US7482415B2, “Process for producing fluoroionomer, method for purification and concentration of the ionomer, and method of film formation” (Daikin Industries, Ltd., priority 2000, dated 2009).

Experiments:
Format in all cases: physicochemical
[1] = Dissolution test (Solvent A): dissolving power of solvents for S monomer, visually evaluated; design: key: A: Completely dissolved; B: Partially dissolved or swelled; C: Not dissolved; conditions: small amount of S monomer
Procedure: (§1) Each solvent shown in the following table (50 cc) was placed in an individual test tube, and a small amount of S monomer was added to test the dissolving power.
The dissolving power was visually evaluated on the following scale of three. […] A: Completely dissolved; B: Partially dissolved or swelled; C: Not dissolved.

[2] = Solubility test of S monomer in solvents
[3] = Dissolution test (Solvent D): dissolving power of acids for S monomer, visually evaluated; design: key: A: Completely dissolved; B: Partially dissolved or swelled; C: Not dissolved; conditions: small amount of S monomer
Procedure: as §1
The dissolving power was visually evaluated on the following scale of three. […] A: Completely dissolved; B: Partially dissolved or swelled; C: Not dissolved

O=S(=O)([O-])C(F)(F)C(F)(F)OC(F)=C(F)F.[Na+] [S monomer, CF2═CFOCF2CF2SO3Na]
Dissolving power ([1]; solvent Acetic acid (50 cc)): A | Dissolving power ([1]; solvent Acetone (50 cc)): A | Dissolving power ([1]; solvent Acetonitrile (50 cc)): A | Dissolving power ([1]; solvent Benzene (50 cc)): C | Dissolving power ([1]; solvent Carbon disulfide (50 cc)): C | Dissolving power ([1]; solvent Chloroform (50 cc)): C | Dissolving power ([1]; solvent Diethyl ether (50 cc)): C | Dissolving power ([1]; solvent Dimethylformamide (50 cc)): A | Dissolving power ([1]; solvent Diphenyl ether (50 cc)): C | Dissolving power ([1]; solvent Ethanol (50 cc)): A | Dissolving power ([1]; solvent Ethyl acetate (50 cc)): A | Dissolving power ([1]; solvent Hexane (50 cc)): C | Dissolving power ([1]; solvent Isopropanol (50 cc)): A | Dissolving power ([1]; solvent Methanol (50 cc)): A | Dissolving power ([1]; solvent Pyridine (50 cc)): A | Dissolving power ([1]; solvent Tetrahydrofuran (50 cc)): A | Dissolving power ([1]; solvent Trifluoroacetic acid (50 cc)): A | Solubility ([2]; in Dimethoxyethane): 2700 mM | Solubility ([2]; in Hexafluoroisopropanol): 30 mM | Solubility ([2]; in Trifluoroacetic acid): 700 mM | Solubility ([2]; in sec-Butanol): 770 mM | Solubility ([2]; in t-Butanol): 530 mM | Dissolving power ([3]; acid Acetic acid (50 cc)): A | Dissolving power ([3]; acid CF2═CFCF2COOH (50 cc)): A | Dissolving power ([3]; acid Hexafluoroisopropanol (50 cc)): A | Dissolving power ([3]; acid Hydrofluoric acid (50 cc)): A | Dissolving power ([3]; acid Trifluoroacetic acid (50 cc)): A
